In PMC2888647 (Journal of medicinal chemistry, 2009):

Legend:
[1] = estimated; cited from earlier work
recombinant human sEH = molecular target: T1, recombinant human sEH (Homo sapiens, UniProt P34913); format: biochemical; conditions: relative to compound 1
T1 sequence (P34913 1-555): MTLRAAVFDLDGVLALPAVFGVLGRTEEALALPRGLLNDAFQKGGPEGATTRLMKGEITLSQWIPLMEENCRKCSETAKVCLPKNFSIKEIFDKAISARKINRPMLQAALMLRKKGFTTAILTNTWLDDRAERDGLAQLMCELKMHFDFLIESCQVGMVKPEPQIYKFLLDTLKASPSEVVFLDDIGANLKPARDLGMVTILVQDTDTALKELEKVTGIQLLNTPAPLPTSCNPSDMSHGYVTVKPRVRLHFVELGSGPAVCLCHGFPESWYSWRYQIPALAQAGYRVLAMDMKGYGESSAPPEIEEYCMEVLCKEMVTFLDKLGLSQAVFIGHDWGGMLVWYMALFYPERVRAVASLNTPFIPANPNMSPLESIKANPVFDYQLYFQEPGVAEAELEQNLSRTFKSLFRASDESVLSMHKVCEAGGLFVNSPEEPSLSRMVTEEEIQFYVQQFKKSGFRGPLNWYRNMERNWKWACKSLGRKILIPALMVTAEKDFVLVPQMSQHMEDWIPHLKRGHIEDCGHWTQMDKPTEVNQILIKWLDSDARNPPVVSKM

decline of sEHi, factor with respect to 1 (recombinant human sEH)	Compound	in vivo half-life [1]
–	CCCCC[C@@H]1O[C@@H]1C/C=C\C/C=C\C/C=C\CCCC(=O)O [14,15-EET, cis-14,15-epoxyeicosa-5(Z),8(Z),11(Z)-trienoic acid]	a few seconds to minutes
16	CCCCCNC(=S)NCCCC/C=C\CCCCCCC(=O)O [Compd 5, 13-(3-n-Pentylthioureido)tridec-8(Z)-enoic acid]	–
